This note sets out measurements from US10604554B2, “Double-acylated GLP-1 derivatives” (Novo Nordisk A/S, priority 2012, dated 2020).

Like-named read-outs stand apart in the source and are kept apart here. Numbered stars: 1 amine (or outer) side, 2 acyl side, 3 side chain; on linkers, the order of the positions; unused ones are H or OH. Square brackets hold non-standard residues; d marks the D form. Side chains are listed from the residue outwards. Peptide text beside a SMILES is read from it. * marks the point of attachment. C18 diacid = O=C(O)CCCCCCCCCCCCCCCCC(=O)*; γGlu = O=C(O)[C@H](CCC(=O)[*:2])N[*:1]; εLys = N[C@@H](CCCCN[*:1])C(=O)[*:2]; AEEA = NCCOCCOCC(=O)O; Aib = CC(C)(N)C(=O)O

In one data set the target is T1, human GLP-1 receptor (Homo sapiens, UniProt P43220).
T1 construct: expressed in transfected cells; host or cells: BHK cells, clone FCW467-12A/KZ10-1 (parent line BHKTS13), further transfected with CRE luciferase
The experiment in a line: In vitro potency (AlphaScreen cAMP, membranes). It is filed as biochemical. On the procedure:
The purpose of this example is to test the activity, or potency, of the GLP-1 derivatives in vitro.
Purified plasma membranes from a stable transfected cell line, BHK467-12A (tk-ts13), expressing the human GLP-1 receptor were stimulated with the GLP-1 analogue or derivative in question, and the potency of cAMP production was measured using the AlphaScreen™ cAMP Assay Kit from Perkin Elmer Life Sciences. The basic principle of the AlphaScreen Assay is a competition between endogenous cAMP and exogenously added biotin-cAMP. The capture of cAMP is achieved by using a specific antibody conjugated to acceptor beads.
A stable transfected cell line and a high expressing clone were selected for screening. The cells were grown at 5% CO2 in DMEM, 5% FCS, 1% Pen/Strep (Penicillin/Streptomycin) and 0.5 mg/ml of the selection marker G418.
Cells at approximately 80% confluence were washed 2× with PBS and harvested with Versene (aqueous solution of the tetrasodium salt of ethylenediaminetetraacetic acid), centrifuged 5 min at 1000 rpm and the supernatant removed. The additional steps were all performed on ice. The cell pellet was homogenised by the Ultrathurax for 20-30 s in 10 ml of Buffer 1 (20 mM Na-HEPES, 10 mM EDTA, pH=7.4), centrifuged 15 min at 20,000 rpm and the pellet resuspended in 10 ml of Buffer 2 (20 mM Na-HEPES, 0.1 mM EDTA, pH=7.4). The suspension was homogenised for 20-30 s and centrifuged 15 min at 20,000 rpm. Suspension in Buffer 2, homogenisation and centrifugation was repeated once and the membranes were resuspended in Buffer 2. The protein concentration was determined and the membranes stored at −80° C. until use.
The assay was performed in flat-bottom 96-well plates (Costar cat. no:3693). The final volume per well was 50 μl.
AlphaScreen cAMP Assay Kit from Perkin Elmer Life Sciences (cat. No: 6760625M); containing Anti-cAMP Acceptor beads (10 U/μl), Streptavidin Donor beads (10 U/μl) and Biotinylated-cAMP (133 U/μl).
AlphaScreen Buffer, pH=7.4: 50 mM TRIS-HCl (Sigma, cat.no: T3253); 5 mM HEPES (Sigma, cat.no: H3375); 10 mM MgCl2, 6H2O (Merck, cat.no: 5833); 150 mM NaCl (Sigma, cat.no: S9625); 0.01% Tween (Merck, cat.no: 822184). The following was added to the AlphaScreen Buffer prior to use (final concentrations indicated): BSA (Sigma, cat. no. A7906): 0.1%; IBMX (Sigma, cat. no. 15879): 0.5 mM; ATP (Sigma, cat. no. A7699): 1 mM; GTP (Sigma, cat. no. G8877): 1 uM.
cAMP standard (dilution factor in assay=5): cAMP Solution: 5 μL of a 5 mM cAMP-stock+495 μL AlphaScreen Buffer.
Membranes were prepared from hGLP-1/BHK 467-12A cells with a concentration of 6 μg/well corresponding to 0.6 mg/ml (the amount of membranes used pr. well may vary)
“No membranes”: Acceptor Beads (15 μg/ml final) in AlphaScreen buffer
“6 μg/well membranes”: membranes+Acceptor Beads (15 μg/ml final) in AlphaScreen buffer
An aliquot (10 μl) of “No membranes” was added to the cAMP standard (per well in duplicate wells) and the positive and negative controls
An aliquot (10 μl) of “6 μg/well membranes” was added to GLP-1 and analogues (per well in duplicate or triplicate wells)
Pos. Control: 10 μl “no membranes”+10 μl AlphaScreen Buffer
Neg. Control: 10 μl “no membranes”+10 μl cAMP Stock Solution (50 μM)
As the beads are sensitive to direct light, any handling was in the dark (as dark as possible), or in green light. All dilutions were made on ice.
1. Make the AlphaScreen Buffer.
2. Dissolve and dilute the GLP-1/Analogues/cAMP standard in AlphaScreen Buffer.
3. Make the Donor Beads Solution by mixing streptavidin donor beads (2 units/well) and biotinylated cAMP (1.2 units/well) and incubate 20-30 min in the dark at room temperature
4. Add the cAMP/GLP-1/Analogues to the plate: 10 μl per well.
5. Prepare membrane/Acceptor Beads solution and add this to the plates: 10 μl per well.
6. Add the Donor Beads: 30 μl per well.
7. Wrap the plate in aluminum foil and incubate on the shaker for 3 hours (very slowly) at RT.
A general note: Bead proximity is the source of the signal in Alpha formats.

The nature of data set [1]: Pharmacokinetic (PK) study in rat. The note with it: male, Sprague Dawley, in vivo, iv, 6 nmol/kg.
Method: The purpose of this Example is to investigate half-life in vivo in rat.
In vivo pharmacokinetic studies in rats were performed with the GLP-1 derivatives of a number of the Example compounds, as described in the following.
Male Sprague Dawley rats of same age with a body weight of approximately 400 g were obtained from Taconic (Denmark) and assigned to the treatments by simple randomisation on body weight, approximately 4 rats per group.
The GLP-1 derivatives (approximately 6 nmol/ml) were dissolved in 50 mM sodium phosphate, 145 mM sodium chloride, 0.05% tween 80, pH 7.4. Intravenous injections (1.0 ml/kg) of the compounds were given with a syringe in the tail vein of conscious rats. Blood was sampled from vena sublingualis for 5 days post dosing. Blood samples (200 μl) were collected in EDTA buffer (8 mM) and then centrifuged at 4° C. and 10000 G for 5 minutes. Plasma samples were kept at −20° C. until analyzed for plasma concentration of the respective GLP-1 compound.
The donor beads were coated with streptavidin, while acceptor beads were conjugated with a monoclonal antibody recognising a mid-/C-terminal epitope of the peptide. Another monoclonal antibody, specific for the N-terminus, was biotinylated. The three reactants were combined with the analyte and formed a two-sited immuno-complex. Illumination of the complex released singlet oxygen atoms from the donor beads, which were channeled into the acceptor beads and triggered chemiluminescence which was measured in an Envision plate reader. The amount of light was proportional to the concentration of the compound.
Plasma concentration-time profiles were analyzed using Phoenix WinNonLin ver. 6.2, Pharsight Inc., Mountain View, Calif., USA), and the half-life (T1/2) calculated using individual plasma concentration-time profiles from each animal.
Where [2] appears, read: cAMP formation in membranes from BHK467-12A cells expressing human GLP-1 receptor, read-out: In vitro potency (AlphaScreen) EC50.

T1 sequence (P43220 24-463): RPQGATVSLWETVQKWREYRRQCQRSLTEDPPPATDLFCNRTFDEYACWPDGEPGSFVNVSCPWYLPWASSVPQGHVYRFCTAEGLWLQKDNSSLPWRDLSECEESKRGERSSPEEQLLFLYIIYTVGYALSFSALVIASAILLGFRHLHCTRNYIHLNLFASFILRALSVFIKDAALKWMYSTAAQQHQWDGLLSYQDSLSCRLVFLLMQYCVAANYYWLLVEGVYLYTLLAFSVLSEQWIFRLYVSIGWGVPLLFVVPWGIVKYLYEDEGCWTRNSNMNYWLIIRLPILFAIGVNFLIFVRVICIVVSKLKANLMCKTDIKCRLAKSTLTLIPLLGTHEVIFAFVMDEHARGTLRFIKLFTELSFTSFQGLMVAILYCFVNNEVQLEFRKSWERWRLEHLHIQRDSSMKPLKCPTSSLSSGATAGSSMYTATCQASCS

The EC50 is the concentration that produces a half-maximal response. For orientation: half-life means how long it takes for the measured level to halve. Turning to `CC[C@H](C)[C@H](NC(=O)[C@H](Cc1ccccc1)NC(=O)[C@H](CCC(=O)O)NC(=O)[C@H](CCCCNC(=O)[C@@H](N)CCCCNC(=O)[C@@H](N)CCCCNC(=O)CC[C@H](NC(=O)CCCCCCCCCOc1ccc(C(=O)O)cc1)C(=O)O)NC(=O)[C@H](C)NC(=O)[C@H](C)NC(=O)[C@H](CCC(N)=O)NC(=O)CNC(=O)[C@H](CCC(=O)O)NC(=O)[C@H](CC(C)C)NC(=O)[C@H](Cc1ccc(O)cc1)NC(=O)[C@H](CO)NC(=O)[C@H](CO)NC(=O)[C@@H](NC(=O)[C@H](CC(=O)O)NC(=O)[C@H](CO)NC(=O)[C@@H](NC(=O)[C@H](Cc1ccccc1)NC(=O)[C@@H](NC(=O)CNC(=O)[C@H](CCC(=O)O)NC(=O)C(C)(C)NC(=O)[C@@H](N)Cc1c[nH]cn1)[C@@H](C)O)[C@@H](C)O)C(C)C)C(=O)N[C@@H](C)C(=O)N[C@@H](Cc1c[nH]c2ccccc12)C(=O)N[C@@H](CC(C)C)C(=O)N[C@H](C(=O)N[C@@H](CCCNC(=N)N)C(=O)NCC(=O)N[C@@H](CCCNC(=N)N)C(=O)N[C@@H](CCCCNC(=O)[C@@H](N)CCCCNC(=O)[C@@H](N)CCCCNC(=O)CC[C@H](NC(=O)CCCCCCCCCOc1ccc(C(=O)O)cc1)C(=O)O)C(=O)O)C(C)C` [Example 1, N^ε26-[(2S)-2-amino-6-[[(2S)-2-amino-6-[[(4S)-4-carboxy-4-[10-(4-carboxyphenoxy)decanoylamino]butanoyl]amino]hexanoyl]amino]hexanoyl], N^ε37-[(2S)-2-amino-6-[[(2S)-2-amino-6-[[(4S)-4-carboxy-4-[10-(4-carboxyphenoxy)decanoylamino]butanoyl]amino]hexanoyl]amino]hexanoyl]-[Aib^8, Arg^34,Lys^37]-GLP-1-(7-37)-peptide], on human GLP-1 receptor, it took 0.059 nM to reach a half-maximal effect (EC50). Further, in data set [1], the half-life was 14 h.

For the compound `CC[C@H](C)[C@H](NC(=O)[C@H](Cc1ccccc1)NC(=O)[C@H](CCC(=O)O)NC(=O)[C@H](CCCCNC(=O)[C@@H](N)CCCCNC(=O)[C@@H](N)CCCCNC(=O)CC[C@H](NC(=O)CCCCCCCCCCCCC(=O)O)C(=O)O)NC(=O)[C@H](C)NC(=O)[C@H](C)NC(=O)[C@H](CCC(N)=O)NC(=O)CNC(=O)[C@H](CCC(=O)O)NC(=O)[C@H](CC(C)C)NC(=O)[C@H](Cc1ccc(O)cc1)NC(=O)[C@H](CO)NC(=O)[C@H](CO)NC(=O)[C@@H](NC(=O)[C@H](CC(=O)O)NC(=O)[C@H](CO)NC(=O)[C@@H](NC(=O)[C@H](Cc1ccccc1)NC(=O)[C@@H](NC(=O)CNC(=O)[C@H](CCC(=O)O)NC(=O)C(C)(C)NC(=O)[C@@H](N)Cc1c[nH]cn1)[C@@H](C)O)[C@@H](C)O)C(C)C)C(=O)N[C@@H](C)C(=O)N[C@@H](Cc1c[nH]c2ccccc12)C(=O)N[C@@H](CC(C)C)C(=O)N[C@H](C(=O)N[C@@H](CCCNC(=N)N)C(=O)NCC(=O)N[C@@H](CCCNC(=N)N)C(=O)N[C@@H](CCCCNC(=O)[C@@H](N)CCCCNC(=O)[C@@H](N)CCCCNC(=O)CC[C@H](NC(=O)CCCCCCCCCCCCC(=O)O)C(=O)O)C(=O)O)C(C)C` [Example 2, N^ε26-[(2S)-2-amino-6-[[(2S)-2-amino-6-[[(4S)-4-carboxy-4-(13-carboxytridecanoylamino)butanoyl]amino]hexanoyl]amino]hexanoyl], N^ε37-[(2S)-2-amino-6-[[(2S)-2-amino-6-[[(4S)-4-carboxy-4-(13-carboxytridecanoylamino)butanoyl]amino]hexanoyl]amino]hexanoyl]-[Aib^8,Arg^34,Lys^37]-GLP-1-(7-37)-peptide], the EC50 on human GLP-1 receptor (setting [2]) amounted to 0.044 nM.

As to `CC[C@H](C)[C@H](NC(=O)[C@H](Cc1ccccc1)NC(=O)[C@H](CCC(=O)O)NC(=O)[C@H](CCCCNC(=O)[C@@H](N)CCCCNC(=O)COCCOCCNC(=O)COCCOCCNC(=O)CC[C@H](NC(=O)CCCCCCCCCOc1ccc(C(=O)O)cc1)C(=O)O)NC(=O)[C@H](C)NC(=O)[C@H](C)NC(=O)[C@H](CCC(N)=O)NC(=O)CNC(=O)[C@H](CCC(=O)O)NC(=O)[C@H](CC(C)C)NC(=O)[C@H](Cc1ccc(O)cc1)NC(=O)[C@H](CO)NC(=O)[C@H](CO)NC(=O)[C@@H](NC(=O)[C@H](CC(=O)O)NC(=O)[C@H](CO)NC(=O)[C@@H](NC(=O)[C@H](Cc1ccccc1)NC(=O)[C@@H](NC(=O)CNC(=O)[C@H](CCC(=O)O)NC(=O)C(C)(C)NC(=O)[C@@H](N)Cc1c[nH]cn1)[C@@H](C)O)[C@@H](C)O)C(C)C)C(=O)N[C@@H](C)C(=O)N[C@@H](Cc1c[nH]c2ccccc12)C(=O)N[C@@H](CC(C)C)C(=O)N[C@H](C(=O)N[C@@H](CCCNC(=N)N)C(=O)NCC(=O)N[C@@H](CCCNC(=N)N)C(=O)N[C@@H](CCCCNC(=O)[C@@H](N)CCCCNC(=O)COCCOCCNC(=O)COCCOCCNC(=O)CC[C@H](NC(=O)CCCCCCCCCOc1ccc(C(=O)O)cc1)C(=O)O)C(=O)O)C(C)C` [Example 5], the EC50 on human GLP-1 receptor stood at 0.033 nM.

Take `CC[C@H](C)[C@H](NC(=O)[C@H](Cc1ccccc1)NC(=O)[C@H](CCC(=O)O)NC(=O)[C@H](CCCCNC(=O)[C@@H](N)CCCCNC(=O)COCCOCCNC(=O)COCCOCCNC(=O)CC[C@H](NC(=O)CCCCCCCCCCCCCCCCC(=O)O)C(=O)O)NC(=O)[C@H](C)NC(=O)[C@H](C)NC(=O)[C@H](CCC(N)=O)NC(=O)[C@H](CCC(=O)O)NC(=O)[C@H](CCC(=O)O)NC(=O)[C@H](CC(C)C)NC(=O)[C@H](Cc1ccc(O)cc1)NC(=O)[C@H](CO)NC(=O)[C@H](CO)NC(=O)[C@@H](NC(=O)[C@H](CC(=O)O)NC(=O)[C@H](CO)NC(=O)[C@@H](NC(=O)[C@H](Cc1ccccc1)NC(=O)[C@@H](NC(=O)CNC(=O)[C@H](CCC(=O)O)NC(=O)C(C)(C)NC(=O)[C@@H](N)Cc1c[nH]cn1)[C@@H](C)O)[C@@H](C)O)C(C)C)C(=O)N[C@@H](C)C(=O)N[C@@H](Cc1c[nH]c2ccccc12)C(=O)N[C@@H](CC(C)C)C(=O)N[C@H](C(=O)N[C@@H](CCC(N)=O)C(=O)NCC(=O)N[C@@H](CCCNC(=N)N)C(=O)N[C@@H](CCCCNC(=O)[C@@H](N)CCCCNC(=O)COCCOCCNC(=O)COCCOCCNC(=O)CC[C@H](NC(=O)CCCCCCCCCCCCCCCCC(=O)O)C(=O)O)C(=O)O)C(C)C` [Example 28, N^ε26-[(2S)-2-amino-6-[[2-[2-[2-[[2-[2-[2-[[(4S)-4-carboxy-4-(17-carboxyheptadecanoylamino)butanoyl]amino]ethoxy]ethoxy]acetyl]amino]ethoxy]ethoxy]acetyl]amino]hexanoyl], N^ε37-[(2S)-2-amino-6-[[2-[2-[2-[[2-[2-[2-[[(4S)-4-carboxy-4-(17-carboxyheptadecanoylamino)butanoyl]amino]ethoxy]ethoxy]acetyl]amino]ethoxy]ethoxy]acetyl]amino]hexanoyl]-[Aib^8,Glu^22,Gln^34, Lys^37]-GLP-1-(7-37)-peptide] (H-H[Aib]EGTFTSDVSSYLEEQAAK([εLys-AEEA-AEEA-γGlu-C18 diacid])EFIAWLVQGRK([εLys-AEEA-AEEA-γGlu-C18 diacid])-OH; N-terminus and C-terminus assumed): on human GLP-1 receptor (setting [2]), the EC50 worked out at 7.25 nM.
